Where “and” joins values, the source holds several entries; their conditions need not be identical. Identical values can stand only once.
Molecular target: LRRK2 G2019S enzyme (Homo sapiens (Human), UniProt Q5S007, G2019S)
Experiment: LRRK2 G2019S TR-FRET biochemical assay (LRRKtide substrate)
Conditions: 134 μM ATP
Protocol: Detection Reaction Conditions • 1× TR-FRET dilution buffer • 10 mM EDTA • 2 nM antibody • 23° C. reaction temperature • 10 μL total reaction volume
Compounds were prepared by initially diluting to 1 mM with DMSO. 35 μL of reference compound solution, 35 μL of test compound solution, and 35 μL HPE were successively added to the source plate (384-well assay plate, Labcyte). The plates were centrifuged at 2500 rpm for 1 minute and sealed in foil. […] The assay plate was centrifuged at 2500 rpm for 1 minute, and sealed with foil.
To perform the enzyme reaction, 5 μL of LRRKtide substrate and kinase mixture in assay buffer was added to all wells of the assay plate. The plate was centrifuged to concentrate the mixture at the bottom of the wells. The assay plate was incubated at 23° C. for 20 minutes. Following incubation, 5 μL of 2× ATP in assay buffer was added to each well, and plates were centrifuged to concentrate the mixture at the bottom of the wells. The plate was incubated at 23° C. for 60 minutes.
To perform the detection of the reaction, EDTA completely mixed in TR-FRET dilution buffer was added to antibody reagent. 10 μL of detection reagent was added to all wells of each well of the assay plate and the plate was centrifuged to concentrate the mixture at the bottom of the wells. The plate was then incubated at 23° C. for 60 minutes.

LRRK2 G2019S enzyme, sequence (Q5S007 whole entry G2019S): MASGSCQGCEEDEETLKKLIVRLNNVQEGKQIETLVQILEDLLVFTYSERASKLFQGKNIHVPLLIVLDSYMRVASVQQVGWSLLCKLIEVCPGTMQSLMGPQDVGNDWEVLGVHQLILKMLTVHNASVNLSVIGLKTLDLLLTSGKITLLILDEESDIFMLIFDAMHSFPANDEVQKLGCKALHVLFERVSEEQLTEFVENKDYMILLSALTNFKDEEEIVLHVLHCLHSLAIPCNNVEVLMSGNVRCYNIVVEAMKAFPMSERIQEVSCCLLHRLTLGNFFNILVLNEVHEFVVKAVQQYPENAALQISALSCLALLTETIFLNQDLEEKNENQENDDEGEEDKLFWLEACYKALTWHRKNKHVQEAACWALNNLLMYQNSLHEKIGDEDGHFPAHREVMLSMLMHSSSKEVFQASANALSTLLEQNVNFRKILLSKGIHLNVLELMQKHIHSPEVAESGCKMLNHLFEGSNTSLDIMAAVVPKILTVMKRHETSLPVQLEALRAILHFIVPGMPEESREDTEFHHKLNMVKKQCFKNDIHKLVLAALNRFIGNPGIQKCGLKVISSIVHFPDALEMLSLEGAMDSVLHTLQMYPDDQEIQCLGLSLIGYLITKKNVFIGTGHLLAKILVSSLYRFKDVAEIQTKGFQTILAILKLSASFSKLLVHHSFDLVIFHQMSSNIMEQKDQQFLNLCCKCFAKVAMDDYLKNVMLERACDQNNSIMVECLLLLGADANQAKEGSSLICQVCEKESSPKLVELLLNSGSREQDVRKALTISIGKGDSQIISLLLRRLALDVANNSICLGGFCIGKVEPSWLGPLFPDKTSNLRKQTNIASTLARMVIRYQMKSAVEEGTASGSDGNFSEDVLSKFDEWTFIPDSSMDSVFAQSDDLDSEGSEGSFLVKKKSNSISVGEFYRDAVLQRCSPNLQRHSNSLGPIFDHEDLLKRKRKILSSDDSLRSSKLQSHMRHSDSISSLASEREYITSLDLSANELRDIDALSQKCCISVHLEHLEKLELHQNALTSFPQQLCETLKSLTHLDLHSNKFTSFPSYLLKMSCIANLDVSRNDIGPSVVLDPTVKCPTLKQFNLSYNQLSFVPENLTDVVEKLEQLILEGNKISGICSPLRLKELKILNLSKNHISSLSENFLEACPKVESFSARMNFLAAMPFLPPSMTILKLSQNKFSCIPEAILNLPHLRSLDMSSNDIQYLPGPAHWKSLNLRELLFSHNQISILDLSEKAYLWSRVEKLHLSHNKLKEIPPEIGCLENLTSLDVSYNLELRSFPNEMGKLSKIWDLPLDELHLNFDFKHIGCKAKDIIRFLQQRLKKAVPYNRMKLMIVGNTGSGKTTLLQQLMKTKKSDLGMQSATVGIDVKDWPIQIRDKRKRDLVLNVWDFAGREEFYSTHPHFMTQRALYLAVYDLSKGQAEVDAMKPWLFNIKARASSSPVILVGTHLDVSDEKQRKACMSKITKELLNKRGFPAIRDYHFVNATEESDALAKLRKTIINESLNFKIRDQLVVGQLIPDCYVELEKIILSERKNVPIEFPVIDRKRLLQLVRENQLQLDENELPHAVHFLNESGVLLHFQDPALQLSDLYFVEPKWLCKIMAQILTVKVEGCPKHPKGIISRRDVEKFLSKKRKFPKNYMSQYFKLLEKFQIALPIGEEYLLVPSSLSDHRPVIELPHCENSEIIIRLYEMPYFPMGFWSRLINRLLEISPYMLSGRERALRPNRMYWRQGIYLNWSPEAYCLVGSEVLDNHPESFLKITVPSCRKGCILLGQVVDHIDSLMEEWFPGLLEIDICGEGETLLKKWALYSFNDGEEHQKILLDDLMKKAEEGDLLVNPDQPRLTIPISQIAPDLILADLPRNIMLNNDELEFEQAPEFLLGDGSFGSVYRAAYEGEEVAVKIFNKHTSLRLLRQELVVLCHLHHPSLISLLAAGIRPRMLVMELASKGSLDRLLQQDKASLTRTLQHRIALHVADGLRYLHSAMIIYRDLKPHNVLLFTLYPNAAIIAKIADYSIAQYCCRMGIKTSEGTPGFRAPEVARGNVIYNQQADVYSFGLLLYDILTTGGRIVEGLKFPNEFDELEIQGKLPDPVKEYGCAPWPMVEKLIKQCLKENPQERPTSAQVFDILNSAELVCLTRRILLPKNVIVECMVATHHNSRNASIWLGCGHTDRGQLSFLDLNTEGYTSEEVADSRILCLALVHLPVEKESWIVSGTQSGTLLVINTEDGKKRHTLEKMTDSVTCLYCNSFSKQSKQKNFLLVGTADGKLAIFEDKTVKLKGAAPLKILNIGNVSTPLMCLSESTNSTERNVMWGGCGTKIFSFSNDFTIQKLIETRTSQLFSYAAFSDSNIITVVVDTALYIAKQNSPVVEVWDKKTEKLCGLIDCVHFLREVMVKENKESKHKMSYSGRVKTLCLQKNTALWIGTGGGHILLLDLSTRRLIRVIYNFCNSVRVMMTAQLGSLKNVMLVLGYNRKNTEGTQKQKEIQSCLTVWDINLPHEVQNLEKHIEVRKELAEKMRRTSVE

| Structure (SMILES) | IC50 |
| --- | --- |
| CCNc1nc(Nc2cn(S(C)(=O)=O)nc2C2CC2)ncc1Br [Compound 111] | < 0.03 µM |
| CCNc1nc(Nc2cn(C3(C)CCOC3=O)nc2Cl)ncc1C(F)(F)F (single isomer, unassigned) [Compound 117] | < 0.03 µM |
| CCNc1nc(Nc2cnn3c2CC(n2ccnn2)C3)ncc1C(F)(F)F (stereo not shown) [Compound 61] | < 0.03 µM |
| [2H]C([2H])([2H])n1nc(C(C)(C)n2cccn2)cc1Nc1ncc(C(F)(F)F)c(NCC)n1 [Compound 70] | < 0.03 µM |
| CNc1nc(Nc2cc([C@@]34C[C@@H]3COC4=O)nn2C2CC2)ncc1C(F)(F)F [Compound 163] | < 0.03 µM |
| CCNc1nc(Nc2cc(C3(C)CCC(=O)N3)nn2C2CC2)ncc1C(F)(F)F (stereo not shown) [Compound 136] | 0.03 to 0.06 µM |
| [2H]C([2H])([2H])n1nc(Nc2ncc(C(F)(F)F)c(NCC)n2)cc1C(C)(C)c1ncco1 [Compound 83] | < 0.03 µM |
| Cn1nc(C(C)(C)n2nccn2)cc1Nc1ncc(C(F)(F)F)c(NC2CC2)n1 [Compound 69] | < 0.03 µM |
| CCNc1nc(Nc2cn(Cc3ccon3)nc2C2CC2)ncc1C(F)(F)F [Compound 94] | < 0.03 µM |
| Cc1nn(C(C)(C)C#N)cc1Nc1ncc(Br)c(NCC(F)F)n1 [Compound 73] | < 0.03 µM |
| CCNc1nc(Nc2cn(C3C[C@@H]3C#N)nc2C2CC2)ncc1Br (single isomer, unassigned) [Compound 214] | < 0.03 µM |
| CCNc1nc(Nc2cnn(-c3cnccn3)c2Cl)ncc1C(F)(F)F [Compound 98] | < 0.03 µM |
| CNc1nc(Nc2cn(C3(C)CCOC3=O)nc2C2CC2)ncc1C(F)(F)F (single isomer, unassigned) [Compound 113] | < 0.03 µM |
| CCNc1nc(Nc2cnn3c2CC(n2nccn2)C3)ncc1C(F)(F)F (single isomer, unassigned) [Compound 54B] | < 0.03 µM |
| [2H]C([2H])([2H])C([2H])([2H])n1nc(C(C)(C)n2nccn2)cc1Nc1ncc(C(F)(F)F)c(NCC)n1 [Compound 88] | < 0.03 µM |
| CCNc1nc(Nc2cc(S(C)(=O)=O)nn2C2CC2)ncc1C(F)(F)F [Compound 132] | < 0.03 µM |
| CCNc1nc(Nc2cn(C3(CF)CCOC3=O)nc2C)ncc1C(F)(F)F (single isomer, unassigned) [Compound 216] | < 0.03 µM |
| [2H]C([2H])([2H])n1nc(C(C)(C)n2nccn2)cc1Nc1ncc(Br)c(OC2CC2)n1 [Compound 81] | < 0.03 µM |
| [2H]C([2H])([2H])n1nc(C2CCOCC2)cc1Nc1ncc(C(F)(F)F)c(NCC)n1 [Compound 193] | 0.03 to 0.06 µM |
| CNc1nc(Nc2cnn3c2CC2(COC2)C3)ncc1C(F)(F)F [Compound 16] | < 0.03 µM |
| CNc1nc(Nc2cn(C3C[C@@H]4C[C@@H]4C3)nc2C)ncc1C(F)(F)F (stereo partly shown) [Compound 3] | < 0.03 µM |
| CCNc1nc(Nc2cc([C@H]3C[C@H]3C#N)nn2C2CC2)ncc1C(F)(F)F [Compound 164] | < 0.03 µM |

| Structure (SMILES) | IC50 |
| --- | --- |
| CCNc1nc(Nc2cn(S(C)(=O)=O)nc2C2CC2)ncc1C(F)(F)F [Compound 112] | < 0.03 µM |
| CNc1nc(Nc2cn(C3CC3)nc2[C@H]2C[C@H](n3nccn3)C2)ncc1C(F)(F)F [Compound 198] | < 0.03 µM |
| CNc1nc(Nc2cn(C3(C)CCOC3=O)nc2C)ncc1C(F)(F)F (single isomer, unassigned) [Compound 124] | < 0.03 µM |
| [2H]C([2H])([2H])n1nc(C2(C)CCOC2=O)cc1Nc1ncc(C(F)(F)F)c(NC)n1 (stereo not shown) [Compound 176] | < 0.03 µM |
| [2H]C([2H])([2H])c1nn(C(C#N)(C([2H])([2H])[2H])C([2H])([2H])[2H])cc1Nc1ncc(C(F)(F)F)c(NC2CC2)n1 [Compound 48] | < 0.03 µM |
| CCNc1nc(Nc2cc([C@@]34C[C@@H]3COC4=O)nn2C2CC2)ncc1C(F)(F)F [Compound 162, (1R,5S)-1-[1-cyclopropyl-5-[[4-(ethylamino)-5-(trifluoromethyl)pyrimidin-2-yl]amino]pyrazol-3-yl]-3-oxabicyclo[3.1.0]hexan-2-one] | < 0.03 µM |
| N#C[C@@H]1CC1n1cc(Nc2ncc(C(F)(F)F)c(NCC(F)F)n2)c(C2CC2)n1 (single isomer, unassigned) [Compound 210] | < 0.03 µM |
| CCNc1nc(Nc2ccnn2[C@H]2C[C@@H](n3ccnn3)C2)ncc1C(F)(F)F [Compound 189] | 0.03 to 0.06 µM |
| CNc1nc(Nc2cn(C3C[C@@H]4[C@H](C3)C4(F)F)nc2Cl)ncc1C(F)(F)F (stereo partly shown) [Compound 10] | > 0.06 µM |
| CCNc1nc(Nc2cn(C3CC3)nc2[C@H]2C[C@H](n3nccn3)C2)ncc1C(F)(F)F [Compound 196] | < 0.03 µM |
| CNc1nc(Nc2cn(C3(C)CCOC3=O)nc2C)ncc1C(F)(F)F (single isomer, unassigned) [Compound 119] | < 0.03 µM |
| Cc1nn(C(C)(C)C#N)cc1Nc1ncc(C(F)(F)F)c(NC2CC2)n1 [Compound 38] | < 0.03 µM |
| CCNc1nc(Nc2cc(C(C)(C)n3nccn3)nn2C(C)C)ncc1C(F)(F)F [Compound 86] | < 0.03 µM |
| [2H]C([2H])([2H])N1CCC(n2cc(Nc3ncc(C(F)(F)F)c(NCC)n3)c(C)n2)(C([2H])([2H])[2H])C1=O (stereo not shown) [Compound 22] | < 0.03 µM |
| [2H]C([2H])([2H])n1nc(C2(C)CCOC2=O)cc1Nc1ncc(C(F)(F)F)c(NC)n1 (stereo not shown) [Compound 175] | < 0.03 µM |
| Cc1nn(C(C)(C)C#N)cc1Nc1ncc(C(F)(F)F)c(N[C@H]2C[C@H]2F)n1 [Compound 39A] | < 0.03 µM |
| CCNc1nc(Nc2cn(C3CS(=O)(=O)C3)nc2C2CC2)ncc1C(F)(F)F [Compound 110, N2-[3-cyclopropyl-1-(1,1-dioxothietan-3-yl)pyrazol-4-yl]-N4-ethyl-5-(trifluoromethyl)pyrimidine-2,4-diamine] | < 0.03 µM |
| CCNc1nc(Nc2cnn([C@H]3C[C@@H](C#N)C3)c2C)ncc1C(F)(F)F [Compound 27] | < 0.03 µM and 0.00341 µM |
| Cc1nn(C2(C)CCOC2=O)cc1Nc1ncc(C(F)(F)F)c(C2CC2)n1 (single isomer, unassigned) [Compound 103] | < 0.03 µM |
| COc1nc(Nc2cn(C3(C)CCNC3=O)nc2C)ncc1Br (single isomer, unassigned) [Compound 64A] | < 0.03 µM |
| [2H]C([2H])([2H])n1nc([C@]23C[C@H]2COC3=O)cc1Nc1ncc(C(F)(F)F)c(NCC)n1 [Compound 185] | < 0.03 µM |
| CNc1nc(Nc2cc(C3(C)CCn4ccnc43)nn2C2CC2)ncc1C(F)(F)F (stereo not shown) [Compound 177] | > 0.06 µM |

| Structure (SMILES) | IC50 |
| --- | --- |
| CCNc1nc(Nc2cn(C3(C)CCOC3=O)nc2C)ncc1C(F)(F)F (single isomer, unassigned) [Compound 100] | < 0.03 µM |
| [2H]C([2H])([2H])n1nc(C(C)(C)n2nccn2)cc1Nc1ncc(Br)c(NCC)n1 [Compound 75] | < 0.03 µM |
| Cc1nn(C(C)(C)C#N)cc1Nc1ncc(C(F)(F)F)c(NCC(F)F)n1 [Compound 59] | < 0.03 µM |
| CNc1nc(Nc2cnn3c2CC2(CC2)C3)ncc1C(F)(F)F [Compound 8] | < 0.03 µM |
| CCNc1nc(Nc2cn(C3CS(=O)(=O)C3)nc2C2CC2)ncc1Br [Compound 96] | < 0.03 µM |
| CCNc1nc(Nc2cn(C3(CF)CCOC3=O)nc2C)ncc1C(F)(F)F (single isomer, unassigned) [Compound 217] | < 0.03 µM |
| CCNc1nc(Nc2cc(C(C)(C)n3nccn3)nn2C2CC2)ncc1Br [Compound 126] | < 0.03 µM |
| CCNc1nc(Nc2ccnn2[C@H]2C[C@H](C#N)C2)ncc1C(F)(F)F [Compound 181, (1R,3R)-3-(5-((4-(ethylamino)-5-(trifluoromethyl)pyrimidin-2-yl)amino)-1H-pyrazol-1-yl)cyclobutanecarbonitrile] | < 0.03 µM |
| CCNc1nc(Nc2cc([C@@]3(C)CCOC3=O)nn2C2CC2)ncc1C(F)(F)F [Compound 144, (3R)-3-[1-cyclopropyl-5-[[4-(ethylamino)-5-(trifluoromethyl)pyrimidin-2-yl]amino]pyrazol-3-yl]-3-methyl-tetrahydrofuran-2-one] | < 0.03 µM |
| [2H]C([2H])([2H])N1CCC(n2cc(Nc3ncc(C(F)(F)F)c(NCC)n3)c(C)n2)(C([2H])([2H])[2H])C1=O (single isomer, unassigned) [Compound 24] | < 0.03 µM |
| CNc1nc(Nc2cc(C3(C)CCn4ccnc43)nn2C2CC2)ncc1C(F)(F)F (stereo not shown) [Compound 178] | < 0.03 µM |
| CNc1nc(Nc2cc(C(C)(C)c3ncccn3)nn2C2CC2)ncc1C(F)(F)F [Compound 128] | < 0.03 µM |
| CCNc1nc(Nc2cc(C(C)n3nccn3)nn2C2CC2)ncc1C(F)(F)F (stereo not shown) [Compound 137] | < 0.03 µM |
| CCNc1nc(Nc2cnn(C3CC(N4CCN(CC(F)F)CC4)C3)c2C)ncc1C(F)(F)F (stereo not shown) [Compound 121] | < 0.03 µM |
| [2H]C([2H])([2H])n1nc(C(C)(C)n2cccn2)cc1Nc1ncc(C(F)(F)F)c(NC2CC2)n1 [Compound 71] | < 0.03 µM |
| COc1nc(Nc2cc(C(C)(C)n3nccn3)nn2C2CC2)ncc1Br [Compound 157] | 0.03 to 0.06 µM |
| CCNc1nc(Nc2cn(C3C[C@@H]3C#N)nc2Cl)ncc1C(F)(F)F (single isomer, unassigned) [Compound 206] | < 0.03 µM |
| CCNc1nc(Nc2cc(N3CCCS3(=O)=O)nn2C2CC2)ncc1C(F)(F)F [Compound 154] | < 0.03 µM |
| CCN1CCC(F)(F)C(n2ncc(Nc3ncc(C(F)(F)F)c(NC)n3)c2Cl)C1 (single isomer, unassigned) [Compound 203] | < 0.03 µM |
| CNc1nc(Nc2cnn(C3C[C@@H]4C[C@@H]4C3)c2C)ncc1C(F)(F)F (stereo partly shown) [Compound 4] | < 0.03 µM |

Source: patent US9932325B2 (Denali Therapeutics Inc., priority 2015, dated 2018)
